Source: patent US20250375436A1, “SERDEXMETHYLPHENIDATE FOR TREATMENT OF IDIOPATHIC HYPERSOMNIA” (ZEVRA THERAPEUTICS, INC., priority 2024, published 2025)

Tests used:
[1] = Plasma PK of d-MPH after single oral dose administrations of 240, 360 and 480 mg SDX Cl
[2] = Single oral dose of 240 mg serdexmethylphenidate in the morning or at night before bedtime, randomized crossover; plasma d-MPH PK by LC/MS-MS; format: in vivo, human; settings: evening vs morning dosing
Description: Heathy adult subjects received single oral doses of 240 mg serdexmethylphenidate, either in the morning or at night, just before bedtime, in a randomized crossover fashion with a washout of 6 days between treatments. Subjects went to bed and nighttime conditions were maintained after administration of the evening dose. Multiple blood PK samples and safety parameters were collected after each administration. d-MPH was measured with a validated LC/MS-MS method. A total of 15 subjects (9 males/6 females) were randomized with 14 completing both treatments.

[3] = tested on: adults with IH; assay: Phase 2 IH study: Epworth Sleepiness Scale (ESS); format: in vivo, human; settings: for ESS, Mean, Titration Baseline: before treatment; for ESS, Mean, Randomization Baseline (Week 5): end of open-label titration; for ESS, Difference in LS Mean (SE): SDX vs placebo, ANCOVA
Excerpt: “Epworth Sleepiness Scale” or “ESS,” as it relates to the present technology, means a self-administered questionnaire with 8 questions. Respondents are asked to rate, on a 4-point scale (0-3), their usual chances of dozing off or falling asleep while engaged in eight different activities. Most people engage in those activities at least occasionally, although not necessarily every day. The ESS score (the sum of 8 item scores, 0-3) can range from 0 to 24. The higher the ESS score, the higher that person's average sleep propensity in daily life (ASP), or their ‘daytime sleepiness’. ESS score are generally interpreted as follows: 0-5, lower normal daytime sleepiness; 6-10 higher normal daytime sleepiness; 11-12, mild excessive daytime sleepiness; 13-15, moderate excessive daytime sleepiness; and 16-24, severe excessive daytime sleepiness. [https://epworthsleepinessscale.com/about-theess/]herein incorporated by reference.
(§1) A double-blind, placebo-controlled, randomized-withdrawal, dose-optimizing, multi-center study investigated the safety and efficacy of serdexmethylphenidate for the treatment of IH. Twenty-two (22) patients completed a 7-week study consisting of two parts. Part 1 of the trial comprised a five-week open-label titration phase during which patients were optimized to one of four total daily doses of serdexmethylphenidate (80, 160, 240, or 320 mg/day). About half the study participants were assigned to take the total daily dose of study drug once per day just before going to bed (QD dosing cohort). The other half was instructed to take half the daily dose of study drug in the morning after awakening and the second half of the daily dose just before going to bed (BID dosing cohort). The titration procedure during the 5-week open label period was conducted as follows: patient treatment was initiated with the lowest total daily dose (80 mg/day) regardless of dosing regimen. At subsequent clinical visits scheduled at intervals of about 1 week each, the dose of the patient was either decreased (except after the first week), maintained, or increased based on tolerability, clinical effect, and adverse events. Depending on the severities of any dose-limiting effects as determined by the clinician, the dose was decreased if possible or the patient was discontinued from the study. If the dose was tolerated by the patient and the clinician determined an opportunity to improve effectiveness, the dose of study drug was increased if possible. Otherwise, the dose was maintained in the subsequent week.
(§2) Part 2 of the trial comprised a two-week randomized (2:1), double-blind, withdrawal phase, during which two-thirds of the trial participants continued to receive their optimized dose while the remaining one-third received placebo. During the withdrawal phase, patients continued the same dosing regimen (QD or BID) they were assigned to at treatment initiation and adhered to during the titration phase.
(§3) Secondary efficacy endpoints included Excessive Daytime Sleepiness (EDS) assessed with the Epworth Sleepiness Scale (ESS). Additional secondary endpoints were based on the Idiopathic Hypersomnia Severity Scale (IHSS), daily rating of difficulty of waking up in the morning assessed with the Sleep Inertia Visual Analog Scale (SI-VAS), and rating of brain fog symptoms measured with an exploratory Brain Fog Scale (BFS). Scores on the ESS, IHSS, and BFS were based on a 1-week look-back period.
The minimally clinically important difference for the ESS scale is 2-3 points. The horizontal dashed line at an ESS score of 10 points marks the boundary between “normal” levels of daytime sleepiness and “excessive” levels of daytime sleepiness. Scores of 10 and less are generally considered “healthy” or “normal” levels of daytime sleepiness whereas scores greater than 10 are considered “excessive”.

[4] = tested on: adults with IH; assay: Phase 2 IH study: Idiopathic Hypersomnia Severity Scale (IHSS); format: in vivo, human; settings: for IHSS, Mean, Titration Baseline: before treatment; for IHSS, Mean, Randomization Baseline (Week 5): end of open-label titration; for IHSS, Difference in LS Mean (SE): SDX vs placebo, ANCOVA
Excerpt: “Idiopathic Hypersomnia Severity Scale” or “IHSS,” as it relates to the present technology, means a self-administered 14 question survey. Respondents are asked to rate on a 4-point scale (0-3) the severity of IH symptoms such as prolonged and/or unrefreshing daytime and nighttime sleep; impaired daytime alertness, and sleep inertia. The total possible score is 50 if all questions are rated at the maximum score. IHSS scores are generally interpreted as follows: 0-12, mild; 13-25, moderate; 26-38, severe; and 39-50, very severe.
as §1, §2, §3
The minimally clinically important difference for the IHSS is 4 points. The horizontal dashed line at an IHSS score of 22 points marks the boundary between “normal” individuals and individuals that may have a sleep disorder with more severe symptoms of idiopathic hypersomnia. Scores of 22 and less are generally considered “healthy” or “normal” whereas scores greater than 22 indicate symptoms of idiopathic hypersomnia.

[5] = tested on: adults with IH; assay: Phase 2 IH study: Sleep Inertia Visual Analog Scale (SI-VAS); format: in vivo, human; settings: for SI-VAS, Mean, Titration Baseline: before treatment; for SI-VAS, Mean, Randomization Baseline (Week 5): end of open-label titration; for SI-VAS, Difference in LS Mean (SE): SDX vs placebo, ANCOVA; for Decrease in mean SI-VAS score: 5-week titration period
Excerpt: “Sleep Inertia Visual Analog Scale” or “SI-VAS,” as it relates to the present technology, is a psychometric response scale to assess how difficult it was for the patient to wake up in the morning. The SI-VAS is a unipolar scale anchored at 0 (“very easy”) and 100 (“very difficult”).
as §1, §2, §3
The SI-VAS is a unipolar scale anchored at 0 (“very easy”) and 100 (“very difficult”). The horizontal dashed line at an SI-VAS score of 50 points represents the midpoint between individuals finding it very easy to awaken and individuals finding it very difficult to awaken in the morning. SI-VAS Patients on the QD dosing schedule reported a decrease of about 33 points in mean SI-VAS score over the 5-week titration period while being treated with conjugate of d-methylphenidate, while patients on the BID dosing schedule reported a decrease in mean SI-VAS of about 24-30 points.

[6] = tested on: adults with IH; assay: Phase 2 IH study: Brain Fog Scale (BFS); format: in vivo, human; settings: for Brain Fog, Mean, Titration Baseline: before treatment; for Brain Fog, Mean, Randomization Baseline (Week 5): end of open-label titration; for Brain Fog, Difference in LS Mean (SE): SDX vs placebo, ANCOVA
Excerpt: “Brain Fog Symptom Score” or “BFS” as it relates to the present technology, means the total score collected with a 19-item questionnaire asking the respondents to describe their mental state while experiencing “Brain Fog” during the last week. The currently recognized 19 mental states of BF include forgetful, difficulty thinking, difficulty focusing, cloudy, difficulty finding the right words/communicating, mental fatigue, slow, mind went blank, spacey, difficulty processing what others say, exhausted, easily distracted, difficulty processing words read, confused, annoyed, sleepy, lost, detached, thoughts moving too quickly. Each item is answered based on a 0 to 4-point Likert scale where 0 means “strongly disagree” and 4 means “strongly agree”.
as §1, §2, §3
The BFS scale is based on a 19 item questionnaire where each question is scored on a 0-4 Likert scale where a score of 0 means “strongly disagree”, a score of 2 means “neutral”, and a score of 4 means “strongly agree”. Possible BFS total scores range from 0 to 76. The horizontal dashed line at a BFS score of 38 points represents the total BFS score of for “neutral” responses to all 19 questions.

[7] = Comparator study with Ritalin: plasma d-MPH PK; format: in vivo, human; settings: for CL/F - Geo Mean: plasma d-MPH
Description: Ritalin is a racemate of d-methylphenidate approved for treating narcolepsy, which is a similar disorder of hypersomnolence characterized by significant excessive daytime sleepiness. The PK profiles of patient administered 80 mg or 200 mg of serdexmethylphenidate are compared to the PK profiles of patients administered 40 mg of Ritalin twice, 5 hours apart, and a single dose of 80 mg of Ritalin.

[8] = Comparison of serdexmethylphenidate to other prescription treatments for sleep disorders (key attributes)
Excerpt: The data presented in the preceding examples supports the conclusion that serdexmethylphenidate has several advantages over other treatments for IH.
Most importantly, serdexmethylphenidate improves IH, EDS, SI, and BF symptoms; none of the other treatment options in Table 6 improve symptoms in all of the instant sleep disorder. […] Additionally, serdexmethylphenidate has advantageous dosing amounts and dosing schedules compared to both XYWAV® and LUMRYZ®. For example, XYWAV® requires two nighttime dosages, whereas serdexmethylphenidate reduces sleep disorder symptoms with only a single dose before bedtime.

[9] = tested on: Patients with IH; settings: cited from earlier work
[10] = all patients, 5-week titration period
[11] = patients continuing treatment during the 2-week withdrawal period
[12] = single 80 mg and single 200 mg doses

## COC(=O)[C@H](c1ccccc1)[C@H]1CCCCN1C(=O)OC[n+]1cccc(C(=O)N[C@@H](CO)C(=O)O)c1.[Cl-] [SDX Cl, 3-[[[(1S)-1-carboxy-2-hydroxyethyl]amino]carbonyl]-1-[[[[(2R)-2-[(1R)-2-methoxy-2-oxo-1-phenylethyl]-1-piperidinyl]carbonyl]oxy]methyl]pyridinium chloride]
[1]; single oral dose 240 mg SDX Cl, N = 14
  CL/F: 384 L/h
[1]; single oral dose 360 mg SDX Cl, N = 10
  CL/F: 387 L/h
[1]; single oral dose 480 mg SDX Cl, N = 7
  CL/F: 297 L/h

## COC(=O)[C@H](c1ccccc1)[C@H]1CCCCN1C(=O)OC[n+]1cccc(C(=O)N[C@@H](CO)C(=O)O)c1 [SDX, serdexmethylphenidate]
[2]
  Total plasma exposure to d-methylphenidate (AUC0-24h and AUCinf): similar
[3]; BID Cohort, SDX (N = 17)
  ESS, Mean Change from Randomization Baseline to Week 7: 0.1
  ESS, Mean, End of Withdrawal Period (Week 7): 7.6
  ESS, Mean, Titration Baseline: 16.5
  ESS, Mean, Randomization Baseline (Week 5): 7.5
[3]; BID Cohort, p-value 0.005
  ESS, Difference in LS Mean (SE): −5.6 (1.88)
[3]; QD Cohort, SDX (N = 15)
  ESS, Mean Change from Randomization Baseline to Week 7: 0.0
  ESS, Mean, End of Withdrawal Period (Week 7): 7.5
  ESS, Mean, Titration Baseline: 16.9
  ESS, Mean, Randomization Baseline (Week 5): 7.5
[3]; QD Cohort, p-value 0.818
  ESS, Difference in LS Mean (SE): 0.5 (2.07)
[3]; both QD and BID cohorts, end of the 5-week titration period
  Decrease in mean ESS score: 8-10 points
[4]; BID Cohort, SDX (N = 17)
  IHSS, Mean Change from Randomization Baseline to Week 7: 0.3
  IHSS, Mean, End of Withdrawal Period (Week 7): 21.6
  IHSS, Mean, Titration Baseline: 34.3
  IHSS, Mean, Randomization Baseline (Week 5): 21.3
[4]; BID Cohort, p-value 0.104
  IHSS, Difference in LS Mean (SE): −9.0 (3.48)
[4]; QD Cohort, SDX (N = 15)
  IHSS, Mean Change from Randomization Baseline to Week 7: 0.7
  IHSS, Mean, End of Withdrawal Period (Week 7): 19.3
  IHSS, Mean, Titration Baseline: 35.4
  IHSS, Mean, Randomization Baseline (Week 5): 18.6
[4]; QD Cohort, p-value 0.208
  IHSS, Difference in LS Mean (SE): 0.9 (3.73)
[4]; [10]
  Decrease in mean IHSS score: 12-17 points
[4]; [11]
  Change in mean IHSS score: no more than 0.7 points
[5]; BID Cohort, SDX (N = 17)
  SI-VAS, Mean Change from Randomization Baseline to Week 7: 1.1
  SI-VAS, Mean, End of Withdrawal Period (Week 7): 49.0
  SI-VAS, Mean, Titration Baseline: 68.5
  SI-VAS, Mean, Randomization Baseline (Week 5): 45.0
[5]; BID Cohort, p-value 0.104
  SI-VAS, Difference in LS Mean (SE): −10.0 (5.98)
[5]; BID dosing schedule
  Decrease in mean SI-VAS score: 24-30 points
[5]; QD Cohort, SDX (N = 15)
  SI-VAS, Mean Change from Randomization Baseline to Week 7: 5.9
  SI-VAS, Mean, End of Withdrawal Period (Week 7): 40.4
  SI-VAS, Mean, Titration Baseline: 68.8
  SI-VAS, Mean, Randomization Baseline (Week 5): 35.1
[5]; QD Cohort, p-value 0.208
  SI-VAS, Difference in LS Mean (SE): 8.2 (6.39)
[5]; QD dosing schedule
  Decrease in mean SI-VAS score: about 33 points
[5]; both QD and BID cohorts continuing treatment, 2-week withdrawal period
  Increase in mean SI-VAS score: less than 6 points
[6]; BID Cohort, SDX (N = 17)
  Brain Fog, Mean Change from Randomization Baseline to Week 7: 1.5
  Brain Fog, Mean, End of Withdrawal Period (Week 7): 30.1
  Brain Fog, Mean, Titration Baseline: 52.4
  Brain Fog, Mean, Randomization Baseline (Week 5): 28.6
[6]; BID Cohort, p-value 0.060
  Brain Fog, Difference in LS Mean (SE): −13.7 (7.07)
[6]; QD Cohort, SDX (N = 15)
  Brain Fog, Mean Change from Randomization Baseline to Week 7: 0.9
  Brain Fog, Mean, End of Withdrawal Period (Week 7): 28.5
  Brain Fog, Mean, Titration Baseline: 52.3
  Brain Fog, Mean, Randomization Baseline (Week 5): 27.5
[6]; QD Cohort, p-value 0.995
  Brain Fog, Difference in LS Mean (SE): 0.0 (7.50)
[6]; [10]
  Decrease in mean BFS score: 19-25 points
[6]; [11]
  Change in mean BFS score: no more than 1.5 points
[7]; SDX 80 mg (N = 14)
  CL/F - Geo Mean: (283) L/h
[7]; SDX 200 mg (N = 14)
  CL/F - Geo Mean: (304) L/h
[7]; [12]
  AUC0-24 and AUCinf compared to Ritalin: higher
  Cmax concentrations compared to Ritalin: lower
  Tmax compared to Ritalin: longer
[8]
  Abnormal Rapid Eye Movement (REM) sleep cycles: does not result in abnormal Rapid Eye Movement (REM) sleep cycles
  IH, EDS, SI, and BF symptoms: improves

## O=C(O)CCCO [oxybate]
[9]; in vivo
  TEAE anxiety: 11%
  TEAE dizziness: 12%
  TEAE headache: 18%
  TEAE nausea: 22 % of subjects
  TEAE vomiting: 11%
[9]; oxybate-treated patients
  Patients reporting worsening symptoms (PGI-C scale): 21%
